{"source": "the supplement of paper PMC10307832"}
{"compound": "CC1=CC(=C(N1C2=CC=C(C=C2)Cl)C)C(=O)CN3CCCCC3 [IU1-47] + O=C(CCCCCCC(=O)Nc1ccccc1)NO [Vorinostat] (partner 1 µM)", "assay": "relative viability (nuclei count vs DMSO), 5 days (fraction); higher = more cells survive", "conditions": "first compound 0.08 µM", "procedure,_shortened": "(§1)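 Relative viability divides the nuclei count in treated wells by that in vehicle wells. Lung cancer cell lines were seeded in 1536-well plates, dosed by pin tool the next day, and fixed and stained after 5 days in one step with final 0.05% Triton X-100, 1% formaldehyde and 1 ug/ml Hoechst. Dosing was a single drug or a fixed anchor-drug dose plus five library-drug doses (not always all listed) in √10 steps, and values are medians of duplicate plates imaged at 4×.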"}
{"cell line": "HARA", "relative viability": 0.421}
{"cell line": "NCI-H322M", "relative viability": 0.935}
{"cell line": "LCLC-97TM1", "relative viability": 0.919}
{"cell line": "NCI-H2009", "relative viability": 0.761}
{"cell line": "A-427", "relative viability": 0.894}
{"cell line": "NCI-H441", "relative viability": 0.947}
{"cell line": "NCI-H661", "relative viability": 0.805}
{"cell line": "NCI-H1734", "relative viability": 0.902}
{"cell line": "NCI-H460", "relative viability": 0.766}
{"cell line": "NCI-H2347", "relative viability": 0.668}
{"cell line": "SK-LU-1", "relative viability": 0.804}
{"cell line": "NCI-H1395", "relative viability": 0.676}
{"cell line": "201T", "relative viability": 1.08}
{"cell line": "NCI-H1915", "relative viability": 0.541}
{"cell line": "HCC-827", "relative viability": 0.966}
{"cell line": "LXF-289", "relative viability": 0.699}
{"cell line": "NCI-H23", "relative viability": 0.661}
{"cell line": "NCI-H647", "relative viability": 0.519}
{"cell line": "CAL-12T", "relative viability": 0.826}
{"cell line": "NCI-H1651", "relative viability": 0.559}
{"cell line": "EPLC-272H", "relative viability": 0.382}
{"cell line": "NCI-H2228", "relative viability": 0.577}
{"cell line": "NCI-H1355", "relative viability": 0.72}
{"cell line": "NCI-H3122", "relative viability": 1.29}
{"cell line": "NCI-H1437", "relative viability": 0.807}
{"cell line": "NCI-H1755", "relative viability": 0.82}
{"cell line": "NCI-H2023", "relative viability": 0.699}
{"cell line": "HCC-15", "relative viability": 0.885}
{"cell line": "NCI-H1793", "relative viability": 0.628}
{"cell line": "PC-14", "relative viability": 0.757}
{"cell line": "EKVX", "relative viability": 0.951}
{"cell line": "LC-2-ad", "relative viability": 0.736}
{"cell line": "NCI-H1944", "relative viability": 0.567}
{"cell line": "NCI-H1975", "relative viability": 0.733}
{"compound": "CC1=CC(=C(N1C2=CC=C(C=C2)Cl)C)C(=O)CN3CCCCC3 [IU1-47] + O=C(CCCCCCC(=O)Nc1ccccc1)NO [Vorinostat] (partner 1 µM)", "assay": "relative viability (nuclei count vs DMSO), 5 days (fraction); higher = more cells survive", "conditions": "first compound 0.253 µM", "procedure,_shortened": "as §1"}
{"cell line": "HARA", "relative viability": 0.679}
{"cell line": "NCI-H322M", "relative viability": 0.968}
{"cell line": "LCLC-97TM1", "relative viability": 0.869}
{"cell line": "NCI-H2009", "relative viability": 0.783}
{"cell line": "A-427", "relative viability": 0.847}
{"cell line": "NCI-H441", "relative viability": 0.884}
{"cell line": "NCI-H661", "relative viability": 0.861}
{"cell line": "NCI-H1734", "relative viability": 0.859}
{"cell line": "NCI-H460", "relative viability": 0.724}
{"cell line": "NCI-H2347", "relative viability": 0.628}
{"cell line": "SK-LU-1", "relative viability": 0.818}
{"cell line": "NCI-H1395", "relative viability": 0.798}
{"cell line": "201T", "relative viability": 1.03}
{"cell line": "NCI-H1915", "relative viability": 0.572}
{"cell line": "HCC-827", "relative viability": 1.08}
{"cell line": "LXF-289", "relative viability": 0.839}
{"cell line": "NCI-H647", "relative viability": 0.587}
{"cell line": "CAL-12T", "relative viability": 0.759}
{"cell line": "NCI-H1651", "relative viability": 0.558}
{"cell line": "EPLC-272H", "relative viability": 0.55}
{"cell line": "NCI-H2228", "relative viability": 0.6}
{"cell line": "NCI-H1355", "relative viability": 0.646}
{"cell line": "NCI-H3122", "relative viability": 1.15}
{"cell line": "NCI-H1437", "relative viability": 0.801}
{"cell line": "NCI-H1755", "relative viability": 0.895}
{"cell line": "NCI-H2023", "relative viability": 0.767}
{"cell line": "HCC-15", "relative viability": 0.894}
{"cell line": "PC-14", "relative viability": 0.756}
{"cell line": "EKVX", "relative viability": 0.632}
{"cell line": "LC-2-ad", "relative viability": 0.736}
{"cell line": "NCI-H1944", "relative viability": 0.59}
{"cell line": "NCI-H1975", "relative viability": 0.756}
{"compound": "CC1=CC(=C(N1C2=CC=C(C=C2)Cl)C)C(=O)CN3CCCCC3 [IU1-47] + O=C(CCCCCCC(=O)Nc1ccccc1)NO [Vorinostat] (partner 1 µM)", "assay": "relative viability (nuclei count vs DMSO), 5 days (fraction); higher = more cells survive", "conditions": "first compound 0.8 µM", "procedure,_shortened": "as §1"}
{"cell line": "HARA", "relative viability": 0.646}
{"cell line": "NCI-H322M", "relative viability": 0.907}
{"cell line": "LCLC-97TM1", "relative viability": 0.82}
{"cell line": "NCI-H2009", "relative viability": 0.72}
{"cell line": "A-427", "relative viability": 0.841}
{"cell line": "NCI-H441", "relative viability": 0.764}
{"cell line": "NCI-H661", "relative viability": 0.798}
{"cell line": "NCI-H1734", "relative viability": 0.778}
{"cell line": "NCI-H460", "relative viability": 1.05}
{"cell line": "NCI-H2347", "relative viability": 0.662}
{"cell line": "SK-LU-1", "relative viability": 0.768}
{"cell line": "NCI-H1395", "relative viability": 0.611}
{"cell line": "201T", "relative viability": 1.07}
{"cell line": "NCI-H1915", "relative viability": 0.533}
{"cell line": "HCC-827", "relative viability": 1.02}
{"cell line": "LXF-289", "relative viability": 0.946}
{"cell line": "NCI-H23", "relative viability": 0.653}
{"cell line": "NCI-H647", "relative viability": 0.691}
{"cell line": "CAL-12T", "relative viability": 0.711}
{"cell line": "NCI-H1651", "relative viability": 0.556}
{"cell line": "EPLC-272H", "relative viability": 0.494}
{"cell line": "NCI-H2228", "relative viability": 0.725}
{"cell line": "NCI-H1355", "relative viability": 0.674}
{"cell line": "NCI-H3122", "relative viability": 1.17}
{"cell line": "NCI-H1437", "relative viability": 0.81}
{"cell line": "NCI-H1755", "relative viability": 0.799}
{"cell line": "NCI-H2023", "relative viability": 0.668}
{"cell line": "HCC-15", "relative viability": 0.946}
{"cell line": "NCI-H1793", "relative viability": 0.77}
{"cell line": "PC-14", "relative viability": 0.734}
{"cell line": "EKVX", "relative viability": 0.846}
{"cell line": "LC-2-ad", "relative viability": 0.71}
{"cell line": "NCI-H1944", "relative viability": 0.593}
{"cell line": "NCI-H1975", "relative viability": 0.795}
{"compound": "CC1=CC(=C(N1C2=CC=C(C=C2)Cl)C)C(=O)CN3CCCCC3 [IU1-47] + O=C(CCCCCCC(=O)Nc1ccccc1)NO [Vorinostat] (partner 1 µM)", "assay": "relative viability (nuclei count vs DMSO), 5 days (fraction); higher = more cells survive", "conditions": "first compound 2.53 µM", "procedure,_shortened": "as §1"}
{"cell line": "HARA", "relative viability": 0.575}
{"cell line": "NCI-H322M", "relative viability": 0.894}
{"cell line": "NCI-H2009", "relative viability": 0.656}
{"cell line": "A-427", "relative viability": 0.883}
{"cell line": "NCI-H441", "relative viability": 0.813}
{"cell line": "NCI-H661", "relative viability": 0.836}
{"cell line": "NCI-H1734", "relative viability": 0.542}
{"cell line": "NCI-H460", "relative viability": 0.819}
{"cell line": "NCI-H2347", "relative viability": 0.444}
{"cell line": "SK-LU-1", "relative viability": 0.815}
{"cell line": "NCI-H1395", "relative viability": 0.517}
{"cell line": "201T", "relative viability": 0.356}
{"cell line": "NCI-H1915", "relative viability": 0.371}
{"cell line": "HCC-827", "relative viability": 0.879}
{"cell line": "LXF-289", "relative viability": 0.751}
{"cell line": "NCI-H23", "relative viability": 0.666}
{"cell line": "NCI-H647", "relative viability": 0.917}
{"cell line": "CAL-12T", "relative viability": 0.747}
{"cell line": "NCI-H1651", "relative viability": 0.531}
{"cell line": "EPLC-272H", "relative viability": 0.394}
{"cell line": "NCI-H2228", "relative viability": 0.692}
{"cell line": "NCI-H3122", "relative viability": 1.06}
{"cell line": "NCI-H1437", "relative viability": 0.735}
{"cell line": "NCI-H1755", "relative viability": 0.828}
{"cell line": "NCI-H2023", "relative viability": 0.497}
{"cell line": "HCC-15", "relative viability": 0.766}
{"cell line": "NCI-H1793", "relative viability": 0.64}
{"cell line": "PC-14", "relative viability": 0.49}
{"cell line": "EKVX", "relative viability": 0.573}
{"cell line": "NCI-H1944", "relative viability": 0.5}
{"cell line": "NCI-H1975", "relative viability": 0.664}
{"compound": "CC1=CC(=C(N1C2=CC=C(C=C2)Cl)C)C(=O)CN3CCCCC3 [IU1-47] + O=C(CCCCCCC(=O)Nc1ccccc1)NO [Vorinostat] (partner 1 µM)", "assay": "relative viability (nuclei count vs DMSO), 5 days (fraction); higher = more cells survive", "conditions": "first compound 8 µM", "procedure,_shortened": "as §1"}
{"cell line": "HARA", "relative viability": 0.479}
{"cell line": "NCI-H322M", "relative viability": 0.885}
{"cell line": "LCLC-97TM1", "relative viability": 0.571}
{"cell line": "NCI-H2009", "relative viability": 0.668}
{"cell line": "A-427", "relative viability": 0.836}
{"cell line": "NCI-H441", "relative viability": 0.595}
{"cell line": "NCI-H661", "relative viability": 0.761}
{"cell line": "NCI-H1734", "relative viability": 0.816}
{"cell line": "NCI-H460", "relative viability": 0.801}
{"cell line": "NCI-H2347", "relative viability": 0.528}
{"cell line": "SK-LU-1", "relative viability": 0.585}
{"cell line": "NCI-H1395", "relative viability": 0.605}
{"cell line": "201T", "relative viability": 0.915}
{"cell line": "NCI-H1915", "relative viability": 0.509}
{"cell line": "HCC-827", "relative viability": 0.558}
{"cell line": "LXF-289", "relative viability": 0.752}
{"cell line": "NCI-H23", "relative viability": 0.622}
{"cell line": "NCI-H647", "relative viability": 0.726}
{"cell line": "CAL-12T", "relative viability": 0.841}
{"cell line": "NCI-H1651", "relative viability": 0.495}
{"cell line": "EPLC-272H", "relative viability": 0.461}
{"cell line": "NCI-H2228", "relative viability": 0.563}
{"cell line": "NCI-H1355", "relative viability": 0.518}
{"cell line": "NCI-H3122", "relative viability": 1.01}
{"cell line": "NCI-H1437", "relative viability": 0.801}
{"cell line": "NCI-H1755", "relative viability": 0.668}
{"cell line": "NCI-H2023", "relative viability": 0.748}
{"cell line": "HCC-15", "relative viability": 0.731}
{"cell line": "NCI-H1793", "relative viability": 0.686}
{"cell line": "PC-14", "relative viability": 0.573}
{"cell line": "EKVX", "relative viability": 0.631}
{"cell line": "LC-2-ad", "relative viability": 0.715}
